This passage reports GI50 and TGI results from PubChem BioAssay (NCI).

Values joined by “and” are separate entries in the source; they are usually repeats but may differ in a detail not shown here. Equal values may be shown once.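 Growth conditions: 96-well plates. Treatment: test compound, 48 hours, 5 concentrations. Analysis: linear interpolation between bracketing concentrations; unreached endpoints set to highest concentration. GI50 = concentration required for 50% inhibition of growth. TGI denotes the concentration required for complete inhibition of growth.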 Where only a bound is given, the exact number is not on record here.

Among the test systems are DU-145 prostate; HCC-2998 colon; HOP-92 NSCLC; NCI-H460 lung; NCI/ADR-RES ovarian; OVCAR-8 ovarian; RPMI-8226 leukemia; SK-MEL-2 melanoma; SNB-19 CNS; U251 CNS.
Holding throughout (test): NCI anticancer screen, dose series, 48 h

As for `Cc1c2c(nn1-c1ccc(S(=O)(=O)NC(=S)NC(=O)c3ccccc3)cc1)-c1ccccc1CC2`, the GI50 in the experiment with DU-145 prostate was 23.9 µM; in the experiment on HCC-2998 colon, 89.2 µM; with HOP-92 NSCLC it was above 100 µM; in the experiment on NCI-H460 lung, 45.1 µM; in the experiment with NCI/ADR-RES ovarian it was above 100 µM; with OVCAR-8 ovarian it was 72.4 µM. In addition, the GI50 in the experiment on RPMI-8226 leukemia is 36.3 µM; with SK-MEL-2 melanoma, above 100 µM; in the experiment on SNB-19 CNS it was 96.4 µM; in the experiment with U251 CNS, 43.3 µM. Further, the TGI in the experiment on DU-145 prostate, in the experiment on HCC-2998 colon, in the experiment with HOP-92 NSCLC, with NCI-H460 lung, in the experiment on NCI/ADR-RES ovarian and in the experiment on OVCAR-8 ovarian was above 100 µM in each case. Besides, the TGI in the experiment with RPMI-8226 leukemia, in the experiment with SK-MEL-2 melanoma, in the experiment with SNB-19 CNS and with U251 CNS was above 100 µM in each case.

With `CC(=O)OCCCC#CC#Cc1cccc(=O)o1`, the GI50 in the experiment on DU-145 prostate was 11.7 µM; in the experiment on HCC-2998 colon, 16.6 µM; in the experiment with HOP-92 NSCLC, 19.8 µM; with NCI-H460 lung, 20 µM; in the experiment with NCI/ADR-RES ovarian, 39.6 µM; in the experiment on OVCAR-8 ovarian, 29.4 µM. For the same compound, the GI50 in the experiment with RPMI-8226 leukemia is 4.19 µM; with SK-MEL-2 melanoma it was 40 µM; with SNB-19 CNS it was 25.6 µM; in the experiment with U251 CNS it was 23.9 µM. In addition, the TGI with DU-145 prostate is 26.8 µM; in the experiment with HCC-2998 colon, 33.2 µM; in the experiment with HOP-92 NSCLC, 37.8 µM; in the experiment with NCI-H460 lung it was 42.2 µM; in the experiment on NCI/ADR-RES ovarian, above 100 µM; in the experiment on OVCAR-8 ovarian, 86.4 µM. Moreover, the TGI with RPMI-8226 leukemia was 20.3 µM; in the experiment on SK-MEL-2 melanoma, above 100 µM; with SNB-19 CNS, 67.7 µM; in the experiment on U251 CNS it was 54.3 µM.

Take `CC1Cc2ccccc2N1C(=O)Cc1nc(N2CCOCC2)cc(=O)[nH]1` (stereo not given): the GI50 is 15.8 µM and 28.1 µM in the experiment with DU-145 prostate; 18.1 µM and 28.6 µM in the experiment on HCC-2998 colon; 0.915 µM and 3.04 µM in the experiment on HOP-92 NSCLC; 17.2 µM and 32 µM in the experiment with NCI-H460 lung; 64.5 µM and > 88.6 µM in the experiment on NCI/ADR-RES ovarian; 34.8 µM and 32 µM in the experiment on OVCAR-8 ovarian. The GI50 was 22.9 µM and > 58.3 µM with RPMI-8226 leukemia; 37.1 µM and 49.5 µM with SK-MEL-2 melanoma; 25.3 µM and 45.8 µM with SNB-19 CNS; 21.8 µM and 45.9 µM in the experiment with U251 CNS. Besides, the TGI is above 100 µM in the experiment on DU-145 prostate; above 100 µM in the experiment with HCC-2998 colon; 46.1 µM and > 75.2 µM in the experiment with HOP-92 NSCLC; above 100 µM in the experiment on NCI-H460 lung; above 100 µM with NCI/ADR-RES ovarian; above 100 µM in the experiment with OVCAR-8 ovarian. The TGI in the experiment on RPMI-8226 leukemia, in the experiment with SK-MEL-2 melanoma, in the experiment with SNB-19 CNS and in the experiment on U251 CNS was above 100 µM each time.

For `O=c1cccc2n1CC1CNC[C@H]2C1`, the TGI with DU-145 prostate, in the experiment on HCC-2998 colon, with HOP-92 NSCLC, with NCI-H460 lung, in the experiment on NCI/ADR-RES ovarian and in the experiment with OVCAR-8 ovarian was above 100 µM each time. The TGI in the experiment on SK-MEL-2 melanoma, with SNB-19 CNS and with U251 CNS was above 100 µM each time.

Turning to `Cc1ccc(OCCOCCOCCOCCOCCOc2ccc(C)n(O)c2=S)c(=S)n1O`, the GI50 with DU-145 prostate was 0.124 µM; with HCC-2998 colon, 0.444 µM; in the experiment on HOP-92 NSCLC, 3.06 µM; in the experiment on NCI-H460 lung, 0.0252 µM; in the experiment with NCI/ADR-RES ovarian, 0.0478 µM; in the experiment on OVCAR-8 ovarian, 0.0384 µM. Further, the GI50 was 0.0713 µM with RPMI-8226 leukemia, 4.81 µM in the experiment on SK-MEL-2 melanoma, 0.118 µM with SNB-19 CNS and 0.0633 µM in the experiment on U251 CNS. The TGI in the experiment with DU-145 prostate is above 100 µM; in the experiment on HCC-2998 colon, 46.9 µM; with HOP-92 NSCLC it was 54.5 µM; in the experiment with NCI-H460 lung, 11.6 µM; in the experiment on NCI/ADR-RES ovarian, above 77 µM; with OVCAR-8 ovarian, above 100 µM. The TGI in the experiment with RPMI-8226 leukemia is above 100 µM; in the experiment with SK-MEL-2 melanoma, 40.5 µM; in the experiment with SNB-19 CNS, above 100 µM; in the experiment with U251 CNS it was above 100 µM.

For the compound `Cc1[nH]nc2ncc(C(=O)N3CCC[C@H]3c3ccc(Cl)cc3)cc12`, the GI50 was above 100 µM in the experiment with DU-145 prostate; above 100 µM in the experiment on HCC-2998 colon; 80.7 µM in the experiment with HOP-92 NSCLC; above 100 µM in the experiment with NCI-H460 lung; above 100 µM in the experiment with NCI/ADR-RES ovarian; above 100 µM in the experiment with OVCAR-8 ovarian. Further, the GI50 with RPMI-8226 leukemia was 63 µM; in the experiment with SK-MEL-2 melanoma it was above 100 µM; in the experiment with SNB-19 CNS it was above 100 µM; with U251 CNS it was above 100 µM. Besides, the TGI with DU-145 prostate, with HCC-2998 colon, with HOP-92 NSCLC, in the experiment on NCI-H460 lung, in the experiment with NCI/ADR-RES ovarian and with OVCAR-8 ovarian was above 100 µM throughout. In addition, the TGI in the experiment on RPMI-8226 leukemia, in the experiment on SK-MEL-2 melanoma, in the experiment on SNB-19 CNS and in the experiment with U251 CNS was above 100 µM throughout.

For `N#CC1=C(N)Oc2c(sc3c(Br)cccc23)C1c1ccc(Cl)cc1` (stereo not given), the GI50 in the experiment on DU-145 prostate was 0.533 µM; in the experiment on HCC-2998 colon, 1.57 µM; with HOP-92 NSCLC it was 2 µM; in the experiment on NCI/ADR-RES ovarian it was 0.332 µM; in the experiment on OVCAR-8 ovarian, 1.71 µM; with RPMI-8226 leukemia, 0.496 µM. In addition, the GI50 in the experiment on SK-MEL-2 melanoma was 0.672 µM; with SNB-19 CNS it was 0.822 µM; in the experiment on U251 CNS, 0.563 µM. In addition, the TGI stood at 3.29 µM in the experiment with DU-145 prostate; 6.29 µM in the experiment with HCC-2998 colon; 7.29 µM in the experiment with HOP-92 NSCLC; 1.35 µM in the experiment with NCI/ADR-RES ovarian; 8.29 µM in the experiment on OVCAR-8 ovarian; 9.25 µM in the experiment with RPMI-8226 leukemia. The TGI in the experiment with SK-MEL-2 melanoma was 12.3 µM; in the experiment on SNB-19 CNS, 12.8 µM; with U251 CNS it was 2.36 µM.

As for `O=C1c2cc(F)ccc2-c2c1c1ccc([N+](=O)[O-])cc1c(=O)n2CCCBr`, the GI50 in the experiment with DU-145 prostate was 3.38 µM; with HCC-2998 colon it was 10.7 µM; with NCI-H460 lung, 4.56 µM; with NCI/ADR-RES ovarian, 4.37 µM; in the experiment with OVCAR-8 ovarian it was 12.2 µM; in the experiment on RPMI-8226 leukemia it was 5.98 µM. Besides, the GI50 in the experiment with SK-MEL-2 melanoma was above 100 µM; in the experiment with SNB-19 CNS it was 8.13 µM; with U251 CNS, 9.87 µM. Moreover, the TGI with DU-145 prostate is above 100 µM; in the experiment with HCC-2998 colon, above 100 µM; in the experiment with NCI-H460 lung it was above 100 µM; with NCI/ADR-RES ovarian, 41.3 µM; with OVCAR-8 ovarian, above 100 µM; in the experiment with RPMI-8226 leukemia it was 51.8 µM. In addition, the TGI with SK-MEL-2 melanoma, in the experiment with SNB-19 CNS and with U251 CNS was above 100 µM each time.
